Biological target: T1, PEDV RdRp (Nsp12) (Porcine epidemic diarrhea virus, UniProt K4NS01)
T1 sequence (K4NS01 4101-5027): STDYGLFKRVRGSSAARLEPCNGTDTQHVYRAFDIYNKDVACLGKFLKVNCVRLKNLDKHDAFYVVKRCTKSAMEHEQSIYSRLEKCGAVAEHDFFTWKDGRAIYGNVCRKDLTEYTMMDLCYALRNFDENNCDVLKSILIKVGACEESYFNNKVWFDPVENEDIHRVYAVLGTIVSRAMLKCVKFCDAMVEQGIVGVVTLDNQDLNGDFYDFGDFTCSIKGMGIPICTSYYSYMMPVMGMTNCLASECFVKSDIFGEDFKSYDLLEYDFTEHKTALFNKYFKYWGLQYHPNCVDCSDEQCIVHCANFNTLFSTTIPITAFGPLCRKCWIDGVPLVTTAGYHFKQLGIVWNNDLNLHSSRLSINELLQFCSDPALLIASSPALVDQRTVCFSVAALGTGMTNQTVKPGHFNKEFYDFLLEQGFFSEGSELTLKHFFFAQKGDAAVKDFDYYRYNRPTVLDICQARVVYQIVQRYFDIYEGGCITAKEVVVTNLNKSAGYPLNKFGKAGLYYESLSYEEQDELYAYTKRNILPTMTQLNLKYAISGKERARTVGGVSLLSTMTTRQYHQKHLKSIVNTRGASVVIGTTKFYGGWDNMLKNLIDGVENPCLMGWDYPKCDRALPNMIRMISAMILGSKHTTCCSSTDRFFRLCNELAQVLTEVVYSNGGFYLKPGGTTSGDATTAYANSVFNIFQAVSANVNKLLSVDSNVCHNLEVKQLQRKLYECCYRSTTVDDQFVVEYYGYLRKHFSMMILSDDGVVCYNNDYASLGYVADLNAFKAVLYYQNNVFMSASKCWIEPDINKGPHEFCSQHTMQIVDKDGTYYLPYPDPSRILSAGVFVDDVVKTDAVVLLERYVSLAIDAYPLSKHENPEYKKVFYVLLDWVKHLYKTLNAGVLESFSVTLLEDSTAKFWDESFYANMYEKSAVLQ
Assay: CoV-RdRp-Gluc luciferase reporter assay in transfected HEK-293T cells
Assay type: cell-based

Work on `CC(C)/N=c1\cc2n(-c3ccc(Cl)cc3)c3ccccc3nc-2cc1Nc1ccc(Cl)cc1` [clofazimine] yielded an IC50 of 136 nM.
